Experimental findings from patent publication US9790211B2, “5-amino-quinoline-8-carboxamide derivatives as 5-HT4 receptor agonists” (SUVEN LIFE SCIENCES LIMITED, priority 2013, dated 2017) are described below.

Each structure is given as a SMILES string. Read-outs that look alike come from different tables or passages of the source.

One data set relates to Male Wistar rats. Briefly: Object recognition task model. The class given is in vivo. The note with it: dose mg/kg: Ex 1 0.1, Ex 2 0.03, Ex 4 0.03, Ex 13 1, Ex 23 0.01, Ex 37 10, Ex 43 0.3; for Exploration time mean ± S.E.M, Familiar object / Exploration time mean ± S.E.M, Novel object: choice trial T2, p.o.; for Inference: p.o.
In data set [1] the target is T1, recombinant human 5-HT4 receptor (Homo sapiens, UniProt Q13639).
T1 construct: expressed in transfected cells
T1 sequence (Q13639 whole entry): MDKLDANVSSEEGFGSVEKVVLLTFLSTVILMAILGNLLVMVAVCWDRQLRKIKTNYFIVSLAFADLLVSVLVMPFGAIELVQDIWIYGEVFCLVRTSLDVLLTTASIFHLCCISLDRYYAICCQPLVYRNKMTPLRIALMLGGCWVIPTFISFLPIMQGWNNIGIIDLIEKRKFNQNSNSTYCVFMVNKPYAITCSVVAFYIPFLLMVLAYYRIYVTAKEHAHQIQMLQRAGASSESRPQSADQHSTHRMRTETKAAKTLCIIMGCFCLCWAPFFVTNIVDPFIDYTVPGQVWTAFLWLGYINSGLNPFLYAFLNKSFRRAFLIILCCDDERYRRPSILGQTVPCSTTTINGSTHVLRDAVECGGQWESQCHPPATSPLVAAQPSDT
Briefly: Determination of EC50 values for 5-HT4 receptor (CHO cells, pCRE-Luc reporter). The note with it: for EC50: 4 hours incubation; for Emax: CHO. The class given is cell-based. In outline: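 CHO cells stably expressing human 5-HT4 receptor with a CRE-luciferase reporter, serum-starved overnight, then exposed to increasing compound concentrations in OptiMEM for 4 h at 37 °C. Cells lysed and luciferase luminescence plotted against concentration.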

Data set [2] in a line: Rodent pharmacokinetic study. Format: in vivo, Male wistar rats. The note with it: plasma, Wistar/Male rat; for bioavailability: 3 mg/kg oral vs 1 mg/kg intravenous. Here is the method: Male wistar rats (225±25 grams) were used as experimental animals. Three to five animals were housed in each cage. Two days prior to dosing day, male wistar rats (225-250 grams) were anesthetized with isoflurane for surgical placement of jugular vein catheter. Animals were fasted over night before oral dosing (p.o) and food pellets were allowed 2 hours post dosing, whereas during intravenous dosing food and water were provided as ad libitum. Three rats were dosed with compounds of formula (I) (3 mg/kg) orally and intravenously (1 mg/kg).
At each time point blood was collected through jugular vein and immediately replenish with an equivalent volume of normal saline from freely moving rats. Collected blood was transferred into a labeled eppendr off containing 10 μL of heparin as anticoagulant. Typically blood samples were collected as following time points: Pre dose, 0.08 (only i.v.), 0.25, 0.5, 1, 2, 4, 6, 8, and 24 hours post dose (n=3). Blood was centrifuged at 4000 rpm for 10 minutes. Plasma was prepared and stored frozen at −20° C. until analysis. The concentrations of the compounds of formula (I) were quantified in plasma by qualified LC-MS/MS method using suitable extraction technique. The compounds of formula (I) were quantified in the calibration range around 2-2000 ng/mL in plasma. Study samples were analyzed using calibration samples in the batch and quality control samples spread across the batch.
Pharmacokinetic parameters Cmax, Tmax, AUC1, T1/2 and Bioavailability were calculated by non-compartmental model using standard non-coinpartmental model by using WinNonLin 5.0.1 or Phoenix WinNonlin 6.2 version Software package.

Data set [3] is described as follows: Rodent brain penetration study. Format: in vivo, Male Wistar rats. The settings on record: 3 mg/kg oral (gavage). The protocol: Male Wistar rats (225±25 grams) were used as experimental animals. Three animals were housed in each cage. Animals were given water and food ad libitum throughout the experiment and maintained on a 12 hours light/dark cycle. Brain penetration was determined in discrete manner in rats. One day prior to dosing day, male wistar rats (225-250 grams) were acclimatized. After acclimatization the rats were grouped according to their weight. In each group, 3 animals were kept in individual cage and allowed free access to food and water. At each time point (0.50, 1, and 2 hours) n=3 animals were used. The compounds of formula (I) were suitably preformulated and administered orally at (free base equivalent) 3 mg/kg. Blood samples were removed via, cardiac puncture by using isoflurane anesthesia. The animals were sacrificed to collect brain tissue. Plasma was separated and brain samples were homogenized and stored frozen at −20° C. until analysis. The concentrations of the compounds of formula (I) in plasma and brain were determined using LC-MS/MS method. The compounds of formula (I) were quantified in plasma and brain homogenate by qualified LC-MS/MS method using suitable extraction technique. The compounds of formula (I) were quantified in the calibration range of 1-500 ng/mL in plasma and brain homogenate. Study samples were analyzed using calibration samples in the batch and quality control samples spread across the batch. Extent of brain-plasma ratio was calculated (Cb/Cp).

[4] abbreviates: CHO cells, human 5-HT4 receptor, luciferase reporter.

In general, EC50 refers to the concentration at which the effect is half-maximal. A word on the Emax: it is the size of the effect at its maximum, as opposed to the concentration needed. By Cmax is commonly meant the highest concentration seen after dosing. A word on the Tmax: it is the time at which the peak concentration occurs. The half-life is how long it takes for the measured level to halve. High values mean slow loss, low ones fast loss. As usually defined, the AUC(0-t) is the area under the concentration-time curve up to a stated or last time point. Low values mean low exposure, high ones high exposure. The bioavailability is the share of a dose that reaches the circulation, judged against a reference dose that is usually intravenous. Higher therefore signals much systemic uptake. In the case of `Nc1c(Cl)cc(C(=O)NCC2CCN(CC3CCOCC3)CC2)c2ncccc12.O=C(O)/C=C/C(=O)O` [Example 1, 5-Amino-6-chloro-N-{[1-(tetrahydro-2H-pyran-4-ylmethyl)-4-piperidinyl]methyl}quinoline-8-carboxamide hemifumarate], in the data set on Male Wistar rats, the “Exploration time mean ± S.E.M, Familiar object” value worked out at 5.94 ± 0.71 s; the “Exploration time mean ± S.E.M, Novel object” value was 16.09 ± 1.75 s; the Inference result is on record as “Active”. Besides, the EC50 in data set [1] (setting [4]) is 0.04 nM. In addition, the Emax in data set [1] (CHO cells, human 5-HT4 receptor, luciferase reporter, read-out: Emax) was determined as 76%. In data set [2] (1 mg/kg intravenous (bolus)), the peak concentration (Cmax) came to 149 ± 6 ng/mL, the Tmax is 0.08 h and the half-life was 1.9 ± 0.7 h. For the same molecule, in data set [2] (3 mg/kg oral (gavage)), the exposure AUC(0-t) was found to be 240 ± 35 ng·h/mL, the highest level (Cmax) was 121 ± 25 ng/mL, the Tmax turned out to be 0.42 ± 0.14 h and the half-life is 4 ± 1.1 h. Moreover, the bioavailability in data set [2] was found to be 51 ± 5%. Further, in data set [3] (Wistar/Male rat), the “Single dose Brain Penetration (Cb/Cp)” value is recorded as 0.48 ± 0.03.

As for `Nc1c(Cl)cc(C(=O)NCC2CCN(CC3CCOCC3)CC2)c2ncccc12.O=C(O)C(O)C(O)C(=O)O` [Example 13, 5-Amino-6-chloro-N-{[1-(tetrahydro-2H-pyran-4-ylmethyl)-4-piperidinyl]methyl} quinoline-8-carboxamide L(+)-tartarate], in the data set with Male Wistar rats, the “Exploration time mean ± S.E.M, Familiar object” value worked out at 8.64 ± 1.33 s; the “Exploration time mean ± S.E.M, Novel object” value was 15.11 ± 1.81 s; the Inference result is “Active”. Also, the Emax in data set [1] is 70%. Further, the EC50 in data set [1] (setting [4]) was 0.09 nM. For the same molecule, in data set [2] (1 mg/kg intravenous (bolus)), the AUC(0-t) was 211 ± 20 ng·h/mL, the Cmax was determined as 168 ± 12 ng/mL, the Tmax is 0.08 h and the half-life was 1.5 ± 0.3 h. Further, in data set [2] (3 mg/kg oral (gavage)), the area under the curve AUC(0-t) came out at 235 ± 25 ng·h/mL, the Cmax is 76 ± 3 ng/mL, the time to peak (Tmax) was 0.5 h and the half-life is 1.7 ± 0.3 h. In data set [2], this molecule had a bioavailability of 37 ± 4%. In data set [3] (male, Wistar, rat, brain, po, 3 mg/kg, read-out: Single dose Brain Penetration (Cb/Cp)), the Kp was 0.41 ± 0.04.
